Assay results published in US7273856B2, “Linear basic compounds having NK-2 antagonist activity and formulations thereof” (Menarini Ricerche S.P.A., priority 2001, dated 2007).
Where a name gives a salt, the structure may show the parent alone.

Molecular target: T1, human NK-2 receptor (Homo sapiens, UniProt P21452)
T1 construct: expressed in transfected cells; host or cells: CHO (Chinese hamster ovary) cells, membranes
T1 sequence (P21452 1-398): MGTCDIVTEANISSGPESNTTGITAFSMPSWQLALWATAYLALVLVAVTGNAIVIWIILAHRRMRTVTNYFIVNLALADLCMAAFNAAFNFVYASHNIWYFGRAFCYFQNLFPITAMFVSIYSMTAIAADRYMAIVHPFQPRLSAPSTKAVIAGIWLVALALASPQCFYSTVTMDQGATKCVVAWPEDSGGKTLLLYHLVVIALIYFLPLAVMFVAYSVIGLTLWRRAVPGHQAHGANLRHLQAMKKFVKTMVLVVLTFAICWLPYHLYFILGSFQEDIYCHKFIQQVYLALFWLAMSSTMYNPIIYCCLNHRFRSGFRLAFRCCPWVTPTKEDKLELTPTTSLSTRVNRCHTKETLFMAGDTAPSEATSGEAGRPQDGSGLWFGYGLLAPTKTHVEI
Experiment: binding test, affinity for the human NK-2 receptor, competition with [125I]NKA on transfected CHO cell membranes
Conditions: CHO cell membranes transfected with NK-2 receptor of human ileum; [125I]NKA 100 pM; 30 min, 20° C.
Experimental: The evaluation of the antagonist activity on NK-2 receptors has been assessed by binding and functional tests according to that already described in literature in relation to NK-2 antagonists.
The test substances have been tested within a concentration range from 0.01 nM to 10 nM. At the end of the incubation time (30 min, 20° C.) the samples have been filtered and radioactivity has been determined using a gamma-counter.

Ki [pM] | pKi | Molecule
501 | – | CCN(CC)c1ccc2cc(C(=O)NC3(C(=O)N[C@H](Cc4ccccc4)C(=O)NCC4CCN(CC5CCOCC5)CC4)CCCC3)oc2c1 [Example 145, 6-Diethylamino-benzofuran-2-carboxylic acid [1-(2-phenyl-1-{[1R-(tetrahydro-pyran-4-ylmethyl)-piperidin-4-ylmethyl)-carbamoyl}-ethylcarbamoyl)-cyclopentyl]-amide]
79.4 | – | N[C@H]1CCCC[C@@H]1NC(=O)C1CCCC(NC(=O)[C@@H](Cc2ccccc2)NC(=O)C2(NC(=O)c3cc4ccccc4s3)CCCC2)C1 (stereo partly drawn) [Example 31, acid-3-cis-N^γ{N^α[N^α(benzo[b]thiophen-2-ylcarbonyl)-1-aminocyclopentan-1-carboxy]-D-phenylalanil}aminocyclohexan-1-carboxylic-N-[(1S,2S)-aminocyclohexyl]amide]
79.4 | – | O=C(NC1(C(=O)N[C@H](Cc2ccccc2)C(=O)NCC2CCN(C3CCSCC3)CC2)CCCC1)c1cc2cc(Cl)ccc2o1 [Example 93, 5-Chloro-benzofuran-2-carboxylic acid [1-(2-phenyl-1(R)-{[1-(tetrahydro-thiopyran-4-yl)-piperidin-4-ylmethyl]-carbamoyl}-ethylcarbamoyl)cyclopentyl]-amide]
316 | – | O=C(NC1(C(=O)N[C@H](Cc2ccccc2)C(=O)NCCC2CCN(C(=O)[C@H]3CCCN3)CC2)CCCC1)c1ccc2cc(Br)ccc2c1 [Example 99, 6-Bromo-naphthalene-2-carboxylic acid [1-(2-phenyl-1(R)-{2-[1-(pyrrolidine-2(R)-carbonyl)-piperidin-4-yl]-ethylcarbamoyl}-ethylcarbamoyl)-cyclopentyl]-amide]
100 | – | O=C(NC1(C(=O)N[C@H](Cc2ccccc2)C(=O)NCC2CCN(CC3CCOCC3)CC2)CCCC1)c1cc2cc(Cl)ccc2o1 [Example 122, 5-Chloro-benzofuran-2-carboxylic acid [1-(2-phenyl-1R-{[1-(tetrahydro-pyran-4 ylmethyl)-piperidin-4-ylmethyl]-carbamoyl}-ethylcarbamoyl)cyclopentyl]-amide]
251 | – | O=C(NC1(C(=O)N[C@H](Cc2ccccc2)C(=O)NCC2CCN(CC3CCOCC3)CC2)CCCC1)c1cc2ccc(Br)cc2o1 [Example 119, 6-Bromo-benzofuran-2-carboxylic acid [1-(2-phenyl-1R-{[1-(tetrahydro-pyran-4-ylmethyl)-piperidin-4-ylmethyl]-carbamoyl}-ethylcarbamoyl)cyclopentyl]-amide]
100 | – | N[C@@H]1CCCC[C@@H]1NC(=O)C1CCCC(NC(=O)[C@@H](Cc2ccccc2)NC(=O)C2(NC(=O)c3cc4ccccc4s3)CCCC2)C1 (stereo partly drawn) [Example 30, acid-3-cis-N^γ{N^α[N^α(benzo[b]thiophen-2-ylcarbonyl)-1-aminocyclopentane-1-carboxy]-D-phenylalanil}aminocyclohexane-1-carboxylic-N-[(1S,2R)-aminocyclohexyl]amide]
2510 | – | COC1CCN(CCCNC(=O)[C@@H](Cc2ccccc2)NC(=O)C2(NC(=O)c3cc4ccccc4s3)CCCC2)CC1 [Example 53, Benzo[b]thiophene-2-carboxylic acid (1-{1(R)-[3-(4-methoxy-piperidin-1-yl)-propylcarbamoyl]-2-phenyl-ethylcarbamoyl}-cyclopentyl)-amide TFA salt]
1000 | – | O=C(NC1(C(=O)N[C@H](Cc2ccccc2)C(=O)NCC2CCN(CCC3CCOCC3)CC2)CCCC1)c1cc2ccccc2s1 [Example 78, Benzo[b]thiophene-2-carboxylic acid {1-[2-phenyl-1(R)-({1-[2-(tetrahydro-pyran-4-yl)-ethyl]-piperidin-4-ylmethyl}-carbamoyl)-ethylcarbamoyl]-cyclopentyl}-amide]
316 | – | Cc1cc2oc(C(=O)NC3(C(=O)N[C@H](Cc4ccccc4)C(=O)NCC4CCN(CC5CCOCC5)CC4)CCCC3)c(C)c2cc1C [Example 148, 3,5,6-Trimethyl-benzofuran-2-carboxylic acid [1-(2-phenyl-1-{[1R-(tetrahydro-pyran-4-ylmethyl)-piperidin-4-ylmethyl]-carbamoyl}-ethylcarbamoyl)-cyclopentyl]-amide]
251 | – | O=C(NC1(C(=O)N[C@H](Cc2ccccc2)C(=O)NCC2CCN(C3CCOCC3)CC2)CCCC1)c1ccc2cc(Br)ccc2c1 [Example 80, 6-Bromo-naphthalene-2-carboxylic acid [1-(2-phenyl-1(R)-{[1-(tetrahydro-pyran-4-yl)-piperidin-4-ylmethyl]-carbamoyl}-ethylcarbamoyl)-cyclopentyl]-amide]
126 | – | O=C(NC1(C(=O)N[C@H](Cc2ccccc2)C(=O)NCC2CCN(CC3COCOC3)CC2)CCCC1)c1ccc2cc(Br)ccc2c1 [Example 89, 6-Bromo-naphthalene-2-carboxylic acid (1-{1(R)-[(1-[1,3]dioxan-5-ylmethyl-piperidin-4-ylmethyl)-carbamoyl]-2-phenyl-ethylcarbamoyl}-cyclopentyl)-amide]
316 | – | COc1ccc2cc(C(=O)NC3(C(=O)N[C@H](Cc4ccccc4)C(=O)NCC4CCN(CC5CCOCC5)CC4)CCCC3)ccc2c1 [Example 118, 6-Methoxy-naphthalene-2-carboxylic acid [1-(2-phenyl-1R-{[1-(tetrahydro-pyran-4-ylmethyl)-piperidin-4-ylmethyl]-carbamoyl}-ethylcarbamoyl)-cyclopentyl]-amide]
1260 | – | C[C@](Cc1ccccc1)(NC(=O)c1cc2ccccc2s1)C(=O)N[C@H](Cc1ccccc1)C(=O)NCCCN1CCOCC1 [Example 34, N^α[N^α(benzo[b]thiophen-2-ylcarbonyl)-D-α-methylphenylalanil]-D-phenylalanine-N-[3-(morpholin-4-yl)propyl]amide]
794 | – | Cc1ccc(C=CC(=O)NC2(C(=O)NC(Cc3ccc(C)cc3)C(=O)NC3CCC(C(=O)NC4CCCCC4N)C3)CCCC2)cc1 [Example 18, N^γ{N^α[N^α(4-(methyl)cynnamoyl)-1-aminocyclopentan-1-carboxy]-R-3[4-methyl)phenyl]alanyl}-(1R,3S)-3-aminocyclopentane-1-carboxylic-acid-N-((1S,2S)-2-aminocyclohexyl)amide hydrochloride salt]
50.1 | – | O=C(NC1(C(=O)N[C@H](Cc2ccccc2)C(=O)NCC2CCN(CC3CCOCC3)CC2)CCCC1)c1cc2ccc(I)cc2s1 [Example 129, 6-Iodo-benzo[b]thiophene-2-carboxylic acid [1-(2-phenyl-1R-{[1-(tetrahydro-pyran-4-ylmethyl)-piperidin-4-ylmethyl]-carbamoyl}-ethylcarbamoyl)-cyclopentyl]-amide]
1000 | – | CN(C)[C@H]1CCCC[C@@H]1NC(=O)[C@@H]1CC[C@H](NC(=O)[C@@H](Cc2ccccc2)NC(=O)C2(NC(=O)c3cc4ccccc4n3C)CCCC2)C1 [Example 13, N^γ{N^α[N^α((methyl)indol-2-ylcarboxy)-1-aminocyclopentan-1-carboxy]-D-phenylalanyl}-(1R,3S)-3-aminocyclopentane-1-carboxylic-acid-N-((1S,2S)-2-dimethylaminocyclohexyl)amide hydrochloride salt]
316 | – | O=C(NC1(C(=O)N[C@H](Cc2ccccc2)C(=O)NCCC2CCN(C[C@@H]3CCCN3)CC2)CCCC1)c1ccc2cc(Br)ccc2c1 [Example 84, 6-Bromo-naphthalene-2-carboxylic acid (1-{2-phenyl-1(R)-[2-(1-pyrrolidin-2(S)-ylmethyl-piperidin-4-yl)ethylcarbamoyl]-ethylcarbamoyl}-cyclopentyl)amide TFA salt]
63.1 | – | Cc1cccc2cc(C(=O)NC3(C(=O)N[C@H](Cc4ccccc4)C(=O)NCC4CCN(CC5CCOCC5)CC4)CCCC3)sc12 [Example 134, 7-Methyl-benzo[b]thiophene-2-carboxylic acid [1-(2-phenyl-1R-{[1-(tetrahydro-pyran-4-ylmethyl)-piperidin-4-ylmethyl]-carbamoyl}-ethylcarbamoyl)-cyclopentyl]-amide]
100 | – | O=C(NC1(C(=O)N[C@H](Cc2ccccc2)C(=O)NCC2CCN(CC3CCOCC3)CC2)CCCC1)c1cc2cc(Br)ccc2o1 [Example 123, 5-Bromo-benzofuran-2-carboxylic acid [1-(2-phenyl-1R-{[1-(tetrahydro-pyran-4-ylmethyl)-piperidin-4-ylmethyl]-carbamoyl}-ethylcarbamoyl)cyclopentyl]-amide]
– | 9.3 | Benzo[b]thiophene-2-carboxylic acid [1-(2-phenyl-1(R)-{[1-(tetrahydro-pyran-4-yl)-piperidin-4-ylmethyl]-carbamoyl}-ethylcarbamoyl)-cyclopentyl]-amide [Example 73]
12.6 | – | NC1CCCCC1NC(=O)C1CCC(NC(=O)C(Cc2ccccc2)NC(=O)C2(NC(=O)c3cc4ccccc4s3)CCCC2)C1 (single isomer, unassigned) [Example 37]
1260 | – | NC1CCCCC1NC(=O)C1CCC(NC(=O)C(Cc2ccccc2)NC(=O)C2(NC(=O)c3cc4ccccc4s3)CCCCC2)C1 (single isomer, unassigned) [Example 40]

Molecule | Ki [pM] | pKi
O=C(N[C@]1(C(=O)N[C@H](Cc2ccccc2)C(=O)NCCCN2CCOCC2)CCc2ccccc21)c1cc2ccccc2s1 [Example 23, N^α[N^α(benzo[b]thiophen-2-ylcarbonyl)-1-(R)-amino-indan-1-carboxy]-D-phenylalanine-N-[3(morpholin-4-yl)propyl]amide] | 2000 | –
